Experimental data taken from US10738028B2, “Spiro three-membered ring, spiro five-membered ring peptide deformylase inhibitor and use thereof in antibacteria and anti-tumor” (priority 2016, dated 2020).

Tests used:
Format in all cases: cell-based
[1] = system: Streptococcus pneoumoniae (SPN); assay: MIC, two-fold agar dilution (CLSI), clinical isolates
How it was run: (§1)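 CLSI two-fold agar dilution; MIC of test samples read per tested strain.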

[2] = system: Escherichia coli (including ESBLs, non-ESBLs); assay: as above
How it was run: as §1

[3] = system: methicillin-sensitive Staphylococcus aureus (MSSA); assay: as above
How it was run: as §1

[4] = system: Moraxella catarrhalis (BCA); assay: as above
How it was run: as §1

[5] = system: methicillin-resistant Staphylococcus aureus (MRSA); assay: as above
How it was run: as §1

[6] = system: Enterococcus faecium (EFM); assay: as above
How it was run: as §1

[7] = system: Enterococcus faecalis (EFA); assay: as above
How it was run: as §1

[8] = system: methicillin-sensitive Staphylococcus epidermidis (MSSE); assay: as above
How it was run: as §1

[9] = system: methicillin-resistant Staphylococcus epidermidis (MRSE); assay: as above
How it was run: as §1

[10] = system: HCT-116 colorectal cancer cell line; assay: CCK-8 proliferation inhibition; conditions: Homo sapiens, HCT-116, 72 h, concentration of 30 μM; 72 hours; CCK-8; read-out: HCT116 inhibition rate/%
How it was run: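 HCT-116 cells, seeded at 2000 cells/well in McCoy's 5A with 10% newborn bovine serum, were cultured overnight at 37° C., 5% CO2, then exposed to compound dilutions in medium for 72 hours. Viability was read with 1:10 diluted CCK-8; controls received 1‰ DMSO.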

## CCCC[C@H](CC(=O)NO)C(=O)N1CC2(CC2)C[C@H]1C(=O)Nc1cccnn1 [Example 48, (S)-5-((R)-2-(2-(hydroxyamino)-2-oxoethyl)hexanoyl)-N-(pyridazin-3-yl)-5-azaspiro[2.4]heptane-6-amide]
[1]; clinical isolate SPN 16-2
  Anti-bacterial activity (MIC), strain SPN 16-2: 8 µg/mL
[1]; clinical isolate SPN 16-4
  Anti-bacterial activity (MIC), strain SPN 16-4: 8 µg/mL
[2]; clinical isolate ECO+ 15-1
  Anti-bacterial activity (MIC), strain ECO+ 15-1: 8 µg/mL
[2]; clinical isolate ECO+ 15-2
  Anti-bacterial activity (MIC), strain ECO+ 15-2: > 32 µg/mL
[2]; clinical isolate ECO+ 15-3
  Anti-bacterial activity (MIC), strain ECO+ 15-3: 32 µg/mL
[2]; clinical isolate ECO+ 15-4
  Anti-bacterial activity (MIC), strain ECO+ 15-4: 32 µg/mL
[2]; clinical isolate ECO− 15-1
  Anti-bacterial activity (MIC), strain ECO− 15-1: > 32 µg/mL
[2]; clinical isolate ECO− 15-2
  Anti-bacterial activity (MIC), strain ECO− 15-2: > 32 µg/mL
[2]; clinical isolate ECO− 15-3
  Anti-bacterial activity (MIC), strain ECO− 15-3: > 32 µg/mL
[2]; clinical isolate ECO− 15-4
  Anti-bacterial activity (MIC), strain ECO− 15-4: > 32 µg/mL
[3]; clinical isolate MSSA 15-3
  Anti-bacterial activity (MIC), strain MSSA 15-3: 8 µg/mL
[3]; clinical isolate MSSA 15-4
  Anti-bacterial activity (MIC), strain MSSA 15-4: 8 µg/mL
[3]; clinical isolate MSSA 15-5
  Anti-bacterial activity (MIC), strain MSSA 15-5: 8 µg/mL
[3]; clinical isolate MSSA 15-6
  Anti-bacterial activity (MIC), strain MSSA 15-6: > 32 µg/mL
[4]; clinical isolate BCA 14-1
  Anti-bacterial activity (MIC), strain BCA 14-1: > 32 µg/mL
[4]; clinical isolate BCA 14-4
  Anti-bacterial activity (MIC), strain BCA 14-4: > 32 µg/mL
[4]; clinical isolate BCA 14-5
  Anti-bacterial activity (MIC), strain BCA 14-5: 8 µg/mL
[4]; clinical isolate BCA 14-6
  Anti-bacterial activity (MIC), strain BCA 14-6: > 32 µg/mL
[4]; clinical isolate BCA 14-7
  Anti-bacterial activity (MIC), strain BCA 14-7: 16 µg/mL
[4]; clinical isolate BCA 14-8
  Anti-bacterial activity (MIC), strain BCA 14-8: 16 µg/mL
[4]; clinical isolate BCA 14-10
  Anti-bacterial activity (MIC), strain BCA 14-10: > 32 µg/mL
[5]; clinical isolate MRSA 15-1
  Anti-bacterial activity (MIC), strain MRSA 15-1: 2 µg/mL
[5]; clinical isolate MRSA 15-2
  Anti-bacterial activity (MIC), strain MRSA 15-2: 8 µg/mL
[5]; clinical isolate MRSA 15-3
  Anti-bacterial activity (MIC), strain MRSA 15-3: 2 µg/mL
[5]; clinical isolate MRSA 15-4
  Anti-bacterial activity (MIC), strain MRSA 15-4: 8 µg/mL
[6]; clinical isolate EFM 15-1
  Anti-bacterial activity (MIC), strain EFM 15-1: > 32 µg/mL
[6]; clinical isolate EFM 15-2
  Anti-bacterial activity (MIC), strain EFM 15-2: > 32 µg/mL
[6]; clinical isolate EFM 15-3
  Anti-bacterial activity (MIC), strain EFM 15-3: > 32 µg/mL
[6]; clinical isolate EFM 15-4
  Anti-bacterial activity (MIC), strain EFM 15-4: > 32 µg/mL
[6]; clinical isolate EFM 15-5
  Anti-bacterial activity (MIC), strain EFM 15-5: 1 µg/mL
[6]; clinical isolate EFM 15-6
  Anti-bacterial activity (MIC), strain EFM 15-6: 8 µg/mL
[7]; clinical isolate EFA 15-1
  Anti-bacterial activity (MIC), strain EFA 15-1: > 32 µg/mL
[7]; clinical isolate EFA 15-2
  Anti-bacterial activity (MIC), strain EFA 15-2: > 32 µg/mL
[7]; clinical isolate EFA 15-3
  Anti-bacterial activity (MIC), strain EFA 15-3: > 32 µg/mL
[7]; clinical isolate EFA 15-4
  Anti-bacterial activity (MIC), strain EFA 15-4: > 32 µg/mL
[7]; clinical isolate EFA 15-5
  Anti-bacterial activity (MIC), strain EFA 15-5: > 32 µg/mL
[7]; clinical isolate EFA 15-6
  Anti-bacterial activity (MIC), strain EFA 15-6: > 32 µg/mL
[7]; clinical isolate EFA 15-9
  Anti-bacterial activity (MIC), strain EFA 15-9: 32 µg/mL
[8]; clinical isolate MSSE 15-3
  Anti-bacterial activity (MIC), strain MSSE 15-3: 8 µg/mL
[8]; clinical isolate MSSE 15-4
  Anti-bacterial activity (MIC), strain MSSE 15-4: 32 µg/mL
[8]; clinical isolate MSSE 15-5
  Anti-bacterial activity (MIC), strain MSSE 15-5: 8 µg/mL
[8]; clinical isolate MSSE 15-6
  Anti-bacterial activity (MIC), strain MSSE 15-6: 8 µg/mL
[9]; clinical isolate MRSE 15-1
  Anti-bacterial activity (MIC), strain MRSE 15-1: 8 µg/mL
[9]; clinical isolate MRSE 15-2
  Anti-bacterial activity (MIC), strain MRSE 15-2: 8 µg/mL
[9]; clinical isolate MRSE 15-3
  Anti-bacterial activity (MIC), strain MRSE 15-3: 8 µg/mL
[9]; clinical isolate MRSE 15-7
  Anti-bacterial activity (MIC), strain MRSE 15-7: 8 µg/mL
[10]
  inhibition at 30 µM: 20%
